T1: human CRT-ECD protein (OBI Pharma Inc., in-house produced) (human, UniProt P27797 18-417, limits assumed)
T1 construct: extracellular domain; Coated at 200 ng per well for ELISA; also called calreticulin
T1 sequence (looked up): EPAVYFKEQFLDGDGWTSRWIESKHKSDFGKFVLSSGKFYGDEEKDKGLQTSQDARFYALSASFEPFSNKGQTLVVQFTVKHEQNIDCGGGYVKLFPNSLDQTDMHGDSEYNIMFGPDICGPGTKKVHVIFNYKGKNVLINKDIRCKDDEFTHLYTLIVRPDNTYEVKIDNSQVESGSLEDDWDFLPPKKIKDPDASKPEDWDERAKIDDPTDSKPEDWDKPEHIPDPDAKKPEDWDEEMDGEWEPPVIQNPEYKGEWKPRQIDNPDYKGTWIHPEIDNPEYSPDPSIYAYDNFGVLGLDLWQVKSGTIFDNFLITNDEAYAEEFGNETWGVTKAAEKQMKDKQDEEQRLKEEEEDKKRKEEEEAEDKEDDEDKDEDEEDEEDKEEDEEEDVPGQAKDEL

B1: α-CRT antibody 5B3-1 (OBI Pharma, Inc.) (antibody, V domains shown)
VH: EVQLVETGGGLVQPKGSLKLSCAASGFSFNNNAMNWVRQAPGKGLEWVARIRSKTNNYEIYYAESVKDRFTISRDDSQSMLYLQMNNLKTDDTAMYYCVRDYNHVGFVYWGQGTQVTVST
VL: DIVMTQTTPSVPVTPGESVSISCRSSKSLLYSNGNTYLYWFLQRPGQSPQLLIYRMSNLASGVPDRFSGSGSGTAFTLRISRVEAEDVGVYYCMQHLEYPFTFGAGTKLELK
notes: also called Anti-CRT (5B3-1)

Experiments:
[1] = system: Mouse Pan T cells with co-cultured MutuDC 1940 cells and 4T1 cells; assay: T cell proliferation primed by dendritic cell loaded with tumor cell; format: cell-based; conditions: DCs cocultured with 4T1 cells treated with 100 μM Oxaliplatin, T cells 72 hours
Procedure: Then, cells were collected and counted. […] Cells were washed and counted. 5-fold Far Red labeled mouse Pan T cells were added to the co-cultured MutuDC 1940 cells and 4T1 cells for another 72 hours. […] Another CD8^+T-cell proliferation was calculated by gating on CD3^+/CD4^− cells and setting a marker that contained at least 98% of cells in unstimulated samples.

[2] = system: Mouse 4T1 breast cancer cells; assay: ATP release to supernatant, CellTiter-Glo Luminescent Assay; format: cell-based; conditions: 100 μM Oxaliplatin for two days
Procedure: Furthermore, supernatants were collected and centrifuged then the ATP in the supernatant was determined by CellTiter-Glo® Luminescent Assay (Promega, Cat #G7570). Briefly, an equal volume of the collected supernatants and reagent were mixed and incubated in the dark for 10 minutes at room temperature. The luminescence was determined by a luminometer (MolecularDevice, SpectraMax L).

[3] = system: MutuDC 1940 cells and 4T1 cells; assay: Dendritic cell-mediated phagocytosis of tumor cell; conditions: 4T1 cells treated with 100 μM Oxaliplatin for two days; untreated 31.03%
Procedure: Mouse 4T1 breast cancer cells were labeled with CellTrace™ Far Red staining solution (ThermoFisher, Cat #C34564) at 37° C. for 30 minutes and then washed with PBS. Cells were seeded overnight in a 6-well plate. After cultivating overnight, cells were treated or not with 100 μM Oxaliplatin for two days. Then, cells were collected and counted. An equal number of MutuDC 1940 cells and 4T1 cells were mixed and incubated at 37° C. for the indicated time. After treatment, cells were collected and stained with anti-mouse CD11c-BV421 (Biolegend, Cat #117330) antibody at 4° C. for 30 minutes. Cells were washed and centrifuged, then analyzed by FACS CANTOII. 4T1 cell incorporation in MutuDC 1940 cells evaluated as the percentage of CD11c positive for far-red fluorescence incorporation.

[4] = system: 4T1 breast cancer cells; conditions: Oxaliplatin 5 mg/kg intravenous, BsAb 20 μg intratumor, days 7, 13 and 20; sacrificed Day 27
Procedure: 1×10^5 4T1 breast cancer cells was injected through subcutaneous injection (s.c. injection) on the right flank of mice in 100 μL sterile PBS. Five mice of each were randomized into three treatment groups on day 7 following tumor inoculation when the tumor size reached 50 mm^3. […] Tumor length, and width were recorded weekly. Tumor volumes were calculated using the formula: volume (mm^3)=([width]^2×length)/2. Results were shown as arithmetic meantstandard error of the mean (SEM). Statistical comparisons were performed by two-tailed Student's t-test. Significance set of probability “p” was set as the level at *p<0.05, **p<0.01, ***, p<0.001. […] Mice were sacrificed at Day 27.

[5] = system: Mouse 4T1 breast cancer cells; assay: Exposure of endogenous danger signals (surface CRT, Hsp70) on tumor cells, flow cytometry; format: cell-based; conditions: 100 μM Oxaliplatin for two days
[6] = system: oxaliplatin treated 4T1 cells; assay: Cell binding assay (FACS) on oxaliplatin treated tumor cells; design: species or system mouse; conditions: 30 nM antibody
[7] = target: T1, human CRT-ECD protein (OBI Pharma Inc., …); assay: ELISA, antigen coated at 200 ng per well, anti-mouse IgG-HRP detection

Row | EC50 [7] [pM] | Molecule | proliferation of CD8+ T-cells [1] | ATP released to the medium [2] | DC-mediated phagocytosis of 4T1 cells by MutuDC 1940 cells (percentage of CD11c positive for far-red) [3] [%] | 4T1 tumor growth versus control [4] | surface Hsp70 on live 4T1 cells ([5]; untreated 3.2%) [%] | surface CRT on live 4T1 cells ([5]; untreated 6.5%) [%] | binding activity on oxaliplatin treated 4T1 cells [6] [%]
1 | – | O=C1[O][Pt]2([NH][C@@H]3CCCC[C@H]3[NH]2)[O]C1=O [Oxaliplatin] | increased | increased | 43.3 | no difference | 11 | 59 | –
2 | 407 | B1 | – | – | – | – | – | – | 41.2

Reference: US20250320299A1, “BISPECIFIC DENDRITIC CELL ENGAGER AND USES THEREOF” (OBI PHARMA, INC., priority 2021, published 2025)
